Laboratory results taken from ChEMBL document CHEMBL4673196, “Synthesis and sigma receptor affinity of spiro[[2]benzopyran-1,1-cyclohexanes] with an exocyclic amino moiety in the 3-position” (RSC Med Chem, 2021).
Activity calls are given as the source filed them. The rule behind the calls is not given here.

Key:
[1] = target: T1, Delta-type opioid receptor (Homo sapiens, UniProt P41143); test: Binding affinity to DOR (unknown origin)
[2] = target: T2, Kappa-type opioid receptor (Homo sapiens, UniProt P41145); test: Binding affinity to KOR (unknown origin)
T2 sequence (P41145 whole entry): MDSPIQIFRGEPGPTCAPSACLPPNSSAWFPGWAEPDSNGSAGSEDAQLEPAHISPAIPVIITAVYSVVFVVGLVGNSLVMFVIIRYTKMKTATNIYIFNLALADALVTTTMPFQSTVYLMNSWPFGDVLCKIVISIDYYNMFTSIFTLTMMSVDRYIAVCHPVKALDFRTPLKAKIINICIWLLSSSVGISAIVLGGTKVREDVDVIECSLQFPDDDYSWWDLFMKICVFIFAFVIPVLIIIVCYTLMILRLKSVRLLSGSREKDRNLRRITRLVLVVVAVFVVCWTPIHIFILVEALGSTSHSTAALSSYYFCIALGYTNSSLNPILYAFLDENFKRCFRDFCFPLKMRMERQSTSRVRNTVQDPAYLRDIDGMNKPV

[3] = target: T3, Mu-type opioid receptor (Homo sapiens, UniProt P35372); test: Binding affinity to MOR (unknown origin)
T3 sequence (P35372 whole entry): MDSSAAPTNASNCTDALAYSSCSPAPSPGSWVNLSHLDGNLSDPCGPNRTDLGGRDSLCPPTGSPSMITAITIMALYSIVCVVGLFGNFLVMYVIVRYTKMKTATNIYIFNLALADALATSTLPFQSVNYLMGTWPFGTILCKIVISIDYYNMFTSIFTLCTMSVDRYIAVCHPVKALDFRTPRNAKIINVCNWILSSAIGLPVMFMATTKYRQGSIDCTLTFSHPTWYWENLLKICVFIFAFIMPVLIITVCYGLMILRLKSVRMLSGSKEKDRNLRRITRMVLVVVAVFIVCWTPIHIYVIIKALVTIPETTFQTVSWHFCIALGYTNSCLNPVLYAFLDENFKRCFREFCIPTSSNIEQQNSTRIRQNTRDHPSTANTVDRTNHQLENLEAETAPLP

[4] = target: Sigma non-opioid intracellular receptor 1 (Cavia porcellus, UniProt Q60492); test: Displacement of [3H]-pentazocine from guinea pig brain sigma 1 receptor incubated for 120 mins by liquid scintillation counting method; format: tissue-based
Chain of Sigma non-opioid intracellular receptor 1 (Q60492 whole entry): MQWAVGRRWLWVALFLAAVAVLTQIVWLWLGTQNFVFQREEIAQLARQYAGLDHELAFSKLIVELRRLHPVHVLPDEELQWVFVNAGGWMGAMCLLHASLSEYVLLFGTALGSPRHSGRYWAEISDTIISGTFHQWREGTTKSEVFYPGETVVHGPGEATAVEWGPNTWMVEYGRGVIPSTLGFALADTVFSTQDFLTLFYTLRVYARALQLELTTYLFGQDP

[5] = target: T4, Sigma intracellular receptor 2 (Rattus norvegicus, UniProt Q5U3Y7); test: Displacement of [3H]-DTG from Sprague-Dawley rat liver sigma 2 receptor incubated for 120 mins by liquid scintillation counting method; format: tissue-based
T4 sequence (Q5U3Y7 whole entry): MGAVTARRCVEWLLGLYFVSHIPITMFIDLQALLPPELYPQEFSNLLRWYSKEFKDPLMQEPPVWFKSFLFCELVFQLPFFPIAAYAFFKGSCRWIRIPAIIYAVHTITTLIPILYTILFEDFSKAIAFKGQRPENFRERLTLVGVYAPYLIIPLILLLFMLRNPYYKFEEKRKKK

[6] = target: T5, Sigma intracellular receptor 2 (Rattus norvegicus) (UniProt Q5U3Y7); test: Displacement of [3H]-DTG from Sprague-Dawley rat liver sigma 2 receptor at 1 uM incubated for 120 mins by liquid scintillation counting method relative to control; format: tissue-based
T5 sequence (whole entry): T4 sequence (Q5U3Y7 whole entry)

[7] = target: T1, Delta-type opioid receptor; test: Binding affinity to DOR (unknown origin) at <= 1 uM; conditions: dose microM <=1
[8] = target: T2, Kappa-type opioid receptor; test: Binding affinity to KOR (unknown origin) at <= 1 uM; conditions: dose microM <=1
[9] = target: T3, Mu-type opioid receptor; test: Binding affinity to MOR (unknown origin) at <= 1 uM; conditions: dose microM <=1

T1 sequence (P41143 whole entry): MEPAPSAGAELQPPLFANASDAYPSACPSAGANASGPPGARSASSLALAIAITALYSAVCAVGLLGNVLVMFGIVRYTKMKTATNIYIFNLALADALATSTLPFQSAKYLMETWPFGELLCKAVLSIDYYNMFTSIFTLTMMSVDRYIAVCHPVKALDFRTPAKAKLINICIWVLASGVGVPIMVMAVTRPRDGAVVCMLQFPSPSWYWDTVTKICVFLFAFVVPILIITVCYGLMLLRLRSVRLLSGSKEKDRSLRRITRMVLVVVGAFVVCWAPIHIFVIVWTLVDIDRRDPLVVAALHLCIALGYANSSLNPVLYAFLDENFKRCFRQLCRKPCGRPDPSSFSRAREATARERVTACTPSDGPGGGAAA

Ki [1] [nM]	Ki [2] [nM]	Ki [3] [nM]	Ki [4] [nM]	Ki [5] [nM]	inhibition [6] [%]	Activity [7]	Activity [8]	Activity [9]	Compound
150	407	696	5.4	60	–	–	–	–	c1ccc2c(c1)CCO[C@@]21CCC[C@H](NCC2CCCCC2)C1 (relative stereo)
–	–	–	278	–	24	–	–	–	CN(Cc1ccccc1)[C@H]1CCC[C@]2(C1)OCCc1ccccc12 (relative stereo)
–	–	–	15	–	34	inactive	inactive	inactive	CN(CC1CCCCC1)[C@H]1CCC[C@]2(C1)OCCc1ccccc12 (relative stereo)
–	–	–	95	340	–	–	–	–	c1ccc(CN[C@H]2CCC[C@]3(C2)OCCc2ccccc23)cc1 (relative stereo)
